# Source: patent publication US6355799B1, “Substituted benzene compounds, process for their preparation, and herbicidal and defoliant compositions containing them” (ISK Americas Incorporated, priority 1997, dated 2002)
# Legend:
# Type in all cases: in vivo
# [1] = system: redroot pigweed (Amaranthus retroflexus, AMARE); assay: Pre-emerge test, greenhouse herbicide activity screening; details: pre-emerge, 14 days after application, rating scale 0-100
# Summary of the method: (§1)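 Visual ratings on a 0-100 scale (0 no damage, 100 all plants dead) were taken at 14 days after treatment. Rates of 15-1000 g ai/ha in acetone, 187 l/ha, were sprayed onto soil one day after planting (pre-emerge) or onto 2-3 leaf plants with 0.25% v/v surfactant (post-emerge).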
# [2] = system: barnyardgrass (Echinochloa crus-galli, ECHCG); assay: as above; details: pre-emerge, 14 days after application, rating scale 0-100
# Description: (§2) A standard greenhouse herbicide activity screening system was used to evaluate the herbicidal efficacy and crop safety of these test compounds. Seven broadleaf weed species including redroot pigweed (Amaranthus retroflexus, AMARE, velvetleaf (Abutilon theophrasti, ABUTH), sicklepod (Cassia obtusifolia, CASOB), ivyleaf morningglory (Ipomoea hederacea, IPOHE), lambsquarters (Chenopodium album, CHEAL), common ragweed (Ambrosia artemisizfolia L., AMBEL), and cocklebur (Xanthium strumarium, XANST) were used as test species. Four grass weed species including green foxtail (Setaria viridis, SETVI), barnyardgrass (Echinochloa crus-galli, ECHCG), johnsongrass (Sorghum halepense, SORHA), and large crabgrass (Digitaria sanguinalis, DIGSA) were also used. In addition, three crop species, field corn (Zea mays L., var. Dekalb 535, CORN), soybean (Glycine max L., var. Pella 86, SOY), and is upland rice (Oryza sp., var. Tebonnet, RICE) were included.
# (§3) All plants were grown in 10 cm square plastic pots which were filled with a sandy loam soil mix. For pre-emerge tests, seeds were planted one day prior to application of the test compounds. For post-emerge tests, seeds were planted 8-21 days prior to the test to allow emergence and good foliage development prior to application of the test substances. At the time of the post-emerge application, plants of all species were usually at the 2-3 leaf stage of development.
# (§4) All test compounds Were dissolved in acetone and applied to the test units in a volume of 187 l /ha. Test materials were applied at rates ranging from 15 g ai/ha to 1000 g ai/ha using a track sprayer equipped with a TJ8001E even flow flat fan spray nozzle. Plants were arranged on a shelf so that the top of the canopy (post-emerge) or top of the soil surface (pre-emerge) was 40-45 cm below the nozzle. Pressurized air was used to force the test solution through the nozzle as it was mechanically advanced (via electrically driven chain drive) over the top of all test plants/pots. This application simulates a typical commercial field herbicide application.
# (§5) In the post-emerge test, a commercial non-ionic surfactant was also included (0.25% v/v) to enhance wetting of the leaf surfaces of target plants. Immediately after application, test units of the pre-emerge applications were watered at the soil surface to incorporate the test materials. Subsequently, these test units were bottom-watered. Post-emerge test units were always bottom-watered.
# (§6) At 14 days after application of the test materials, phytotoxicity ratings were recorded. A rating scale of 0-100 was used as previously described in Research Methods in Weed Science, 2nd edition, B. Truelove, Ed., Southern Weed Science Society, Auburn University, Auburn, Ala. 1977. Briefly, “0” corresponds to no damage and “100” corresponds to complete death of all plants in the test unit. This scale was used both to determine efficacy against weed species and damage to crop species. Herbicide activity data for various compounds of this invention, which are shown by compound No. in Tables 1-8, are shown in Tables 11 and 12.
# [3] = system: green foxtail (Setaria viridis, SETVI); assay: as above; details: pre-emerge, 14 days after application, rating scale 0-100
# Description: as §2, §3, §4, §5, §6
# [4] = system: ivyleaf morningglory (Ipomoea hederacea, IPOHE); assay: as above; details: pre-emerge, 14 days after application, rating scale 0-100
# Description: as §2, §3, §4, §5, §6
# [5] = system: lambsquarters (Chenopodium album, CHEAL); assay: as above; details: pre-emerge, 14 days after application, rating scale 0-100
# Description: as §2, §3, §4, §5, §6
# [6] = system: large crabgrass (Digitaria sanguinalis, DIGSA); assay: as above; details: pre-emerge, 14 days after application, rating scale 0-100
# Description: as §2, §3, §4, §5, §6
# [7] = system: sicklepod (Cassia obtusifolia, CASOB); assay: as above; details: pre-emerge, 14 days after application, rating scale 0-100
# Description: as §2, §3, §4, §5, §6
# [8] = system: velvetleaf (Abutilon theophrasti, ABUTH); assay: as above; details: pre-emerge, 14 days after application, rating scale 0-100
# Description: as §2, §3, §4, §5, §6
# [9] = system: field corn (Zea mays L., var. Dekalb 535, CORN); assay: Pre-emerge test, crop safety; details: pre-emerge, 14 days after application, rating scale 0-100
# Summary of the method: (§7)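 Compounds in acetone were track-sprayed at 15-1000 g ai/ha (187 l/ha) on sandy loam pots: pre-emerge one day after seeding, post-emerge at 2-3 leaf stage with 0.25% v/v non-ionic surfactant. Phytotoxicity was rated 14 days later on a 0 (no damage) to 100 (complete death) scale.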
# [10] = system: upland rice (Oryza sp., var. Tebonnet, RICE); assay: Pre-emerge test, crop safety; details: pre-emerge, 14 days after application, rating scale 0-100
# Summary of the method: as §7
# [11] = system: barnyardgrass (Echinochloa crus-galli, ECHCG); assay: Post-emerge test, greenhouse herbicide activity screening; details: post-emerge, 14 days after application, rating scale 0-100
# Description: as §2, §3, §4, §5, §6
# [12] = system: green foxtail (Setaria viridis, SETVI); assay: as above; details: post-emerge, 14 days after application, rating scale 0-100
# Description: as §2, §3, §4, §5, §6
# [13] = system: ivyleaf morningglory (Ipomoea hederacea, IPOHE); assay: as above; details: post-emerge, 14 days after application, rating scale 0-100
# Description: as §2, §3, §4, §5, §6
# [14] = system: lambsquarters (Chenopodium album, CHEAL); assay: as above; details: post-emerge, 14 days after application, rating scale 0-100
# Description: as §2, §3, §4, §5, §6
# [15] = system: large crabgrass (Digitaria sanguinalis, DIGSA); assay: as above; details: post-emerge, 14 days after application, rating scale 0-100
# Description: as §2, §3, §4, §5, §6
# [16] = system: redroot pigweed (Amaranthus retroflexus, AMARE); assay: as above; details: post-emerge, 14 days after application
# Description: as §2, §3, §4, §5, §6
# [17] = system: sicklepod (Cassia obtusifolia, CASOB); assay: as above; details: post-emerge, 14 days after application, rating scale 0-100
# Description: as §2, §3, §4, §5, §6
# [18] = system: velvetleaf (Abutilon theophrasti, ABUTH); assay: as above; details: post-emerge, 14 days after application, rating scale 0-100
# Description: as §2, §3, §4, §5, §6
# [19] = system: field corn (Zea mays L., var. Dekalb 535, CORN); assay: Post-emerge test, crop safety; details: post-emerge, 14 days after application, rating scale 0-100
# Summary of the method: as §1
# [20] = system: upland rice (Oryza sp., var. Tebonnet, RICE); assay: Post-emerge test, crop safety; details: post-emerge, 14 days after application, rating scale 0-100
# Summary of the method: as §1
smiles,measurement,setting,value
COc1c(Cl)cc(F)c(-n2c(=O)cc(C(F)(F)F)n(C)c2=O)c1NNC(=O)c1ccc(F)cc1F [15-4],phytotoxicity rating AMARE,[1]; 63 g ai/ha,100
same,phytotoxicity rating AMARE,[1]; 250 g ai/ha,100
same,phytotoxicity rating ECHCG,[2]; 63 g ai/ha,80
same,phytotoxicity rating ECHCG,[2]; 250 g ai/ha,100
same,phytotoxicity rating SETVI,[3]; 63 g ai/ha,100
same,phytotoxicity rating SETVI,[3]; 250 g ai/ha,100
same,phytotoxicity rating IPOHE,[4]; 63 g ai/ha,100
same,phytotoxicity rating IPOHE,[4]; 250 g ai/ha,100
same,phytotoxicity rating CHEAL,[5]; 63 g ai/ha,100
same,phytotoxicity rating CHEAL,[5]; 250 g ai/ha,100
same,phytotoxicity rating DIGSA,[6]; 63 g ai/ha,100
same,phytotoxicity rating DIGSA,[6]; 250 g ai/ha,100
same,phytotoxicity rating CASOB,[7]; 63 g ai/ha,100
same,phytotoxicity rating CASOB,[7]; 250 g ai/ha,100
same,phytotoxicity rating ABUTH,[8]; 63 g ai/ha,100
same,phytotoxicity rating ABUTH,[8]; 250 g ai/ha,100
same,phytotoxicity rating CORN,[9]; 63 g ai/ha,90
same,phytotoxicity rating CORN,[9]; 250 g ai/ha,100
same,phytotoxicity rating RICE,[10]; 63 g ai/ha,80
same,phytotoxicity rating RICE,[10]; 250 g ai/ha,100
same,Post-emerge Herbicidal Activity ECHCG (phytotoxicity rating),[11]; 63 g ai/ha,40
same,Post-emerge Herbicidal Activity ECHCG (phytotoxicity rating),[11]; 250 g ai/ha,90
same,Post-emerge Herbicidal Activity SETVI (phytotoxicity rating),[12]; 63 g ai/ha,50
same,Post-emerge Herbicidal Activity SETVI (phytotoxicity rating),[12]; 250 g ai/ha,80
same,Post-emerge Herbicidal Activity IPOHE (phytotoxicity rating),[13]; 63 g ai/ha,100
same,Post-emerge Herbicidal Activity IPOHE (phytotoxicity rating),[13]; 250 g ai/ha,100
same,Post-emerge Herbicidal Activity CHEAL (phytotoxicity rating),[14]; 63 g ai/ha,100
same,Post-emerge Herbicidal Activity CHEAL (phytotoxicity rating),[14]; 250 g ai/ha,100
same,Post-emerge Herbicidal Activity DIGSA (phytotoxicity rating),[15]; 63 g ai/ha,30
same,Post-emerge Herbicidal Activity DIGSA (phytotoxicity rating),[15]; 250 g ai/ha,70
same,Post-emerge Herbicidal Activity AMARE (phytotoxicity rating),"[16]; 63 g ai/ha, rating scale 0-100 (0 no damage, 100 complete death)",70
same,Post-emerge Herbicidal Activity AMARE (phytotoxicity rating),"[16]; 250 g ai/ha, rating scale 0-100",100
same,Post-emerge Herbicidal Activity CASOB (phytotoxicity rating),[17]; 63 g ai/ha,50
same,Post-emerge Herbicidal Activity CASOB (phytotoxicity rating),[17]; 250 g ai/ha,80
same,Post-emerge Herbicidal Activity ABUTH (phytotoxicity rating),[18]; 63 g ai/ha,100
same,Post-emerge Herbicidal Activity ABUTH (phytotoxicity rating),[18]; 250 g ai/ha,100
same,Post-emerge Herbicidal Activity CORN (crop damage rating),[19]; 63 g ai/ha,50
same,Post-emerge Herbicidal Activity CORN (crop damage rating),[19]; 250 g ai/ha,90
same,Post-emerge Herbicidal Activity RICE (crop damage rating),[20]; 63 g ai/ha,70
same,Post-emerge Herbicidal Activity RICE (crop damage rating),[20]; 250 g ai/ha,95
